Where “and” joins values, the source holds several entries; their conditions need not be identical. Identical values can stand only once. Like-named read-outs stand apart in the source and are kept apart here.
Columns and labels:
α1-adrenoceptor = experiment: Competitive radioligand-binding assay, [3H]prazosin; parameters: species or system rat
Method: 10 mM stock solutions of test compounds were prepared in DMSO. Serial dilutions of compounds were prepared in 96-well microplate in assay buffers using an automated pipetting system epMotion 5070 (Eppendorf, Poland). Each compound was tested in 6 concentrations of 1.0E-05 to 1.0E-10 M (final concentration).
Affinity towards α1- and α2-adrenoceptors was evaluated using the competitive radioligand-binding assay. Experiments were conducted in the rat cerebral cortex. Radioligand [3H]prazosin (84,2 Ci/mmol, α1-adrenoceptor, PerkinElmer, Poland, NET823001MC) and [3H]clonidine (70.5 Ci/mmol, α2-adrenoceptor, PerkinElmer, Poland, NET613250UC) were used. The membrane preparation and the assay procedure were carried out accordingly as previously published. Radioactivity was counted on the MicroBeta2 scintillation counter (PerkinElmer, Poland). Data were fitted to a one-site curve-fitting equation with Prism 8 (GraphPad Software, USA), and Ki values were estimated from the Cheng–Prusoff equation.

[1] = Blood pressure of anaesthetized normotensive rats; type: in vivo, rat; details: thiopental-anaesthetized rats
Method: Eighteen normotensive rats were anaesthetized with thiopental (70 mg/kg) by ip injection. The left carotid artery was cannulated with tubing filled with heparin solution in saline to facilitate pressure measurements using Apparatus PowerLab 4/35 (ADInstruments, Australia). Blood pressure was measured: before ip administration of 4-OH-Guanabenz at the doses of 2 or 5 or 10 mg/kg b.w. or water – time 0 min (control pressure) and continuously during the next 60 min.

[2] = Blood pressure, 24-h telemetric method, normotensive rats; type: in vivo, rat; details: telemetry, 5 mg/kg b.w., first 15 or 15 and 30 min after 1st, 7th and 14th administration, vs control
Method: The blood pressure of rats treated with the tested compound was measured for a 24 h period after ip treatment (5 mg/kg b.w.) with a special telemetric system Stellar (TSE-Systems, Germany).
Surgery: The operation was carried out over 30 min under sterile conditions. Rats were anaesthetized with ketamine and xylasine (intramuscular injection: 100 mg/kg and 10 mg/kg). Before surgery and for 7 days after, the animals were also treated with cefuroxime (20 mg/kg/day) via intramuscular injection and ketoprofen (5 mg/kg/day) via ip injection. […] The transmitter was sutured to the peritoneal cavity.
The rats were individually caged for 2 weeks to heal after surgical cut. The animals were then placed in pairs in cages to reduce their isolation stress. Blood pressure was measured: before ip administration of the compounds – time 0 min and 24 h thereafter.

[3] = [3H] prazosin, rat cerebral cortex, mean ± SEM, n = 3, read-out: Ki

Row | Structure (SMILES) | Ki (α1-adrenoceptor; [3]) [µM] | effect on diastolic pressure (in words) ([1]; 10 mg/kg b.w., 10th minute after administration) | effect on blood pressure (in words) ([1]; single dose 2 or 5 mg/kg b.w., vs water) | effect on systolic and diastolic blood pressure (in words) [2] | Ki (α1-adrenoceptor; ADRA1, experiment 1, 2, 3, read-out: Ki, single experiments) | Affinity towards α1-adrenoceptors (α1-adrenoceptor; summary table)
1 | Cl.N=C(N)NN=Cc1c(Cl)cc(O)cc1Cl [4-OH-Guanabenz, 2-[(2,6-Dichloro-4-hydroxyphenyl)methylene]hydrazinecarboximidamide Hydrochloride] | 3.86 ± 1.01 | short-term increase | not significantly different | significantly higher |  | 
2 | N=C(N)N/N=C/c1c(Cl)cccc1Cl [Guanabenz] | 0.253 |  |  |  | 0.259 µM and 0.25 µM and 0.251 µM | +

Source: publication PMC10539439 (Pharmacological Reports, 2023)
